Test results reported in patent publication US6451798B2, “Substituted alkyl piperazine derivatives” (CV Therapeutics, Inc., priority 2000, dated 2002).

Key:
[1] = Metabolic stability in human liver S-9 fractions; details: for Liver S-9 stability factor: % parent remaining after 30 min at 37 C divided by average % ranolazine remaining (57%), 10 μM, human liver S9 2 mg/mL
Method: As a measure of metabolic stability the compounds of this invention were incubated with human liver S-9 microsomal fractions. After, 30 minutes at 37 C, the amount of parent drug remaining was determined using LC-mass spec. The response factors for each compound was determined by establishing a standard curve and using an internal standard during the analysis of the samples. […] The compounds of this invention were assayed as described in the protocol below and the percentage of parent remaining was divided by the average % of ranolazine remaining (57%) affording a metabolic stability factor.
The following reagents were used; Potassium phosphate, 0.5M pH 74. (incubation buffer), kept at room temperature; 0.05M MgCl2 kept at 4° C.; β-Nicotinamide adenine dinucleotide phosphate, tetrasodium salt, reduced form (NADPH), 0.02M solution in water (˜16.6 mg/mL) from Sigma Lot #79H7044 prepared on day of use.
Incubation mixtures were prepared as follows:
Combine all components with incubation buffer and re-pipette 200 μL/tube+25 μL of the compound being tested along with 25 μL of S-9.
After 5 min of pre-incubation at 37° C., at 0 and 30 min after starting the reaction, a 50 μl aliquot of the incubation mixture was removed and added to 100 μL of 9:1 acetonitrile: methanol containing the internal standard.
The mixture was centrifuged and a 100 μL aliquot of the supernatant was diluted in 1 mL of solvent C (0.1% Formic Acid in water). Then samples were analyzed for change between the ratio of compound to internal standard at time zero and 30 minutes by LC/MS (injected 10 μL).
Samples were analyzed for the starting compounds and potential metabolite/s by LC/MS using an internal standard on a Micromass platform mass spec with a Keystone Inc. BDS ODS-C18 column with a flow rate of 0.25 ml/min.

[2] = system: mitochondrial fatty acid oxidation using palmitoyl carnitine as substrate; assay: Palmitoyl carnitine oxidation in isolated rat heart mitochondria; type: biochemical; details: 15 min at 30° C.
Method: Rat heart mitochodria were isolated by the method of Nedergard and Cannon (Methods in Enzymol. 55, 3, 1979).
The Palmitoyl carnitine oxidation was carried out in a total volume of 100 microliters containing the following agents: 110 mM KCl, 33 mM Tris buffer at pH 8, 2 mM KPi, 2 mM MgCl2, 0.1 mM EDTA, 0.1 mg/ml of defatted BSA, 0.5 mM malic acid, 3 mM ADP, 52 micrograms of mitochondrial protein, and 43 microM 1-C14 palmitoyl carnitine (Sp. Activity 60 mCi/mmole; 20 microCi/ml, using 5 microliters per assay). The compounds of this invention were added in a DMSO solution at the following concentrations: 100 microM, 30 microM, and 3 microM. In each assay, a DMSO control was used. After 15 min at 30° C., the enzymatic reaction was centrifuged (20,000 g for 1 min), and 70 microliters of the supernatant was added to an activated reverse phase silicic acid column (approximately 0.5 ml of silicic acid). The column was eluted with 2 ml of water, and 0.5 ml of the eluent was used for scintillation counting to determine the amount of C^14 trapped as C^14 bicarbonate ion. The data are presented as % activity of control.

| Liver S-9 stability factor [1] | SMILES | further results |
| --- | --- | --- |
| 0.61 | Cc1ccc(COCC(O)CN2CCN(CC(=O)Nc3c(C)cccc3C)CC2)cc1 (stereo not drawn) [Compound 22, N-(2,6-dimethylphenyl)-2-(4-{2-hydroxy-3-[(4-methylphenyl)methoxy]propyl}piperazinyl)acetamide] | – |
| 1.48 | Cc1cccc(C)c1NC(=O)CN1CCN(CC(O)COC2CCCC2)CC1 (stereo not drawn) [Compound 12] | – |
| 1.0 | COc1ccccc1OCC(O)CN1CCN(CC(=O)Nc2c(C)cccc2C)CC1 (racemic) [Ranolazine, (±)-N-(2,6-dimethylphenyl)-4-[2-hydroxy-3-(2-methoxyphenoxy)propyl]-1-piperazineacetamide, reference compound] | percentage of parent drug remaining at the 30 minute time point ([1]; human liver S-9, 30 minutes at 37 C, average of five experiments): 57%; Mitochondrial fatty acid oxidation activity (% of control) ([2]; 30 μM compound): 98%; Mitochondrial fatty acid oxidation activity (% of control) ([2]; 100 μM compound): 63% |
| 1.20 | Cc1cccc(C)c1NC(=O)CN1CCN(CC(O)COC2CCCCC2)CC1 (stereo not drawn) [Compound 13] | – |

The next lines start with the compound.

| SMILES | Liver S-9 stability factor [1] | further results |
| --- | --- | --- |
| Cc1cccc(C)c1NC(=O)CN1CCN(CC(O)COC(C)C)CC1 (stereo not drawn) [Compound 10] | – | Mitochondrial fatty acid oxidation activity (% of control) ([2]; 100 μM compound): 80% |
| Cc1cccc(C)c1NC(=O)CN1CCN(CC(O)COCc2ccc(C(F)(F)F)cc2)CC1 (stereo not drawn) [Compound 17, N-(2,6-dimethylphenyl)-2-[4-(2-hydroxy-3-{[4-(trifluoromethyl)phenyl]methoxy}propyl)piperazinyl]acetamide] | 1.0 | – |
| CCCCc1ccc(COCC(O)CN2CCN(CC(=O)Nc3c(C)cccc3C)CC2)cc1 (stereo not drawn) [Compound 24, N-(2,6-dimethylphenyl)-2-(4-{3-[(4-butylphenyl)methoxy]-2-hydroxypropyl}piperazinyl)acetamide] | 0.02 | – |
| Cc1cccc(C)c1NC(=O)CN1CCN(CC(O)COCc2ccc3ccccc3c2)CC1 (stereo not drawn) [Compound 25, N-(2,6-dimethylphenyl)-2-{4-[2-hydroxy-3-(2-naphthylmethoxy)propyl]piperazinyl}acetamide] | 0.01 | – |
| Cc1cccc(C)c1NC(=O)CN1CCN(CC(O)COCc2ccc(-c3ccccc3)cc2)CC1 (stereo not drawn) [Compound 23, N-(2,6-dimethylphenyl)-2-(4-{2-hydroxy-3-[(4-phenylphenyl)methoxy]propyl}piperazinyl)acetamide] | 0.05 | – |
